Experimental data from patent publication US8415469B2, “Compounds and methods for kinase modulation, and indications therefor” (Plexxikon Inc., priority 2005, dated 2013).

Assays:
Assay type in all cases: biochemical
Abl = molecular target: T1, Abl (Homo sapiens, UniProt P00519); assay: AlphaScreen kinase assay, Abl; settings: read-out: activity toward kinase Abl, IC50
T1 construct: P1121. pET-SPEC BI-PTP Abl G227-V515-X; His6 (N); made in house; host or cells: E. coli (PTP1B co-expressed)
T1 sequence (P00519 with tags, fused parts or gaps): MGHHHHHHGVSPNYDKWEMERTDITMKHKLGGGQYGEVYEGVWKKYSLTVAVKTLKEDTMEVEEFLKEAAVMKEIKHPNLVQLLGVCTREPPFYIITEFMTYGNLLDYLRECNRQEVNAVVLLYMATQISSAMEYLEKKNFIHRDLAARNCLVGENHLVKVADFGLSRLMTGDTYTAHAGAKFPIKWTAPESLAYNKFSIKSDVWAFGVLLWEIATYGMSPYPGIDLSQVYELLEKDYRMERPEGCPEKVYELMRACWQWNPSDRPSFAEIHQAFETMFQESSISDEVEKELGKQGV
How it was run: (§1)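 Here, phosphorylation of a biotin-tagged peptide was sensed by proximity of streptavidin donor and antibody-bearing acceptor beads. Test compounds covered 8 concentrations by 1:3 serial dilution of 20 mM DMSO stocks.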

Stk6 = molecular target: T2, Stk6 (Homo sapiens, UniProt O14965); assay: Z'-Lyte FRET kinase assay (Invitrogen), Stk6; settings: read-out: IC50, activity toward kinase Stk6
T2 construct: purchased Invitrogen (Carlsbad, Calif.), screening service
T2 sequence (O14965 1-403): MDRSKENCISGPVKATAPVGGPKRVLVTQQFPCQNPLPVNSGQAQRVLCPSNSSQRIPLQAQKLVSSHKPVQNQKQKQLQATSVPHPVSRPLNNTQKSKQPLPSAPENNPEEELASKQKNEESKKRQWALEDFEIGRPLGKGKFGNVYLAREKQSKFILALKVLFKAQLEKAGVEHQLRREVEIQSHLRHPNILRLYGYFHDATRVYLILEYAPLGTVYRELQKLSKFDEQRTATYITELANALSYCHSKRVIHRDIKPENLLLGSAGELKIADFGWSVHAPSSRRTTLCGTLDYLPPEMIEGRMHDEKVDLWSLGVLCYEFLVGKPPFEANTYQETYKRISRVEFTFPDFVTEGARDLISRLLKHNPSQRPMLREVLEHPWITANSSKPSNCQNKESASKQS

c-Raf-1 = molecular target: T3, c-Raf-1 (Homo sapiens, UniProt P04049); assay: AlphaScreen kinase assay, c-Raf-1; settings: read-out: IC50, activity toward kinase c-Raf-1
T3 construct: purchased Upstate Biotechnology

PKC theta = molecular target: T4, PKC theta (Homo sapiens, UniProt Q04759); assay: Z'-Lyte FRET kinase assay (Invitrogen), PKC theta; settings: read-out: IC50, activity toward kinase PKC theta
T4 construct: purchased Invitrogen (Carlsbad, Calif.), screening service
How it was run: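 10 μM ATP, 2 μM peptide, 1% DMSO final; HEPES pH 7.5 buffer with MgCl2/EGTA/BRIJ-35. Kinase rxn 1 h RT, protease development 1 h RT, stop, read donor/acceptor ratio. Compound titrated.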

Met = molecular target: T5, Met (Homo sapiens, UniProt P08581); assay: AlphaScreen kinase assay, Met; settings: read-out: IC50, activity toward kinase Met
T5 construct: P1818.pETN6 BI-PTP MET G1056-G1364-X WT; His6 (N); made in house; host or cells: E. coli (PTP1B co-expressed)
How it was run: as §1

Fak = molecular target: T6, Fak (Homo sapiens, UniProt Q05397); assay: AlphaScreen kinase assay, Fak; settings: read-out: IC50, activity toward kinase Fak
T6 construct: P1358.pFastBacHtb FAK S411-Q686-X; His6 with pFastBacHTb leader (TEV site) (N); made in house; host or cells: Sf9 (baculovirus)

Akt3 = Akt3 (Homo sapiens, UniProt Q9Y243); assay: AlphaScreen kinase assay, Akt3; settings: read-out: IC50, activity toward kinase Akt3
How it was run: as §1

Jnk1 = molecular target: T7, Jnk1 (Homo sapiens, UniProt P45983); assay: AlphaScreen kinase assay, Jnk1; settings: read-out: IC50, activity toward kinase Jnk1
T7 construct: purchased Upstate Biotechnology

Measured: IC50

T5 sequence (P08581 with tags, fused parts or gaps): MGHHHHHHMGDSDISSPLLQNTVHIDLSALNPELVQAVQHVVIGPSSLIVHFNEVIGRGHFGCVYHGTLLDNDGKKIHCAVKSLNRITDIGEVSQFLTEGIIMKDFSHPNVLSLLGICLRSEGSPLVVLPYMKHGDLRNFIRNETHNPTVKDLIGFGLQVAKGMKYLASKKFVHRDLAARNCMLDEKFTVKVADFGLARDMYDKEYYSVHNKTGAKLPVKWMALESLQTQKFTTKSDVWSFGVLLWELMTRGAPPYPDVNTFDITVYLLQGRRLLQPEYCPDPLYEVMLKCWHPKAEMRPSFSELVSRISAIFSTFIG
Sequence of Akt3 (Q9Y243 whole entry): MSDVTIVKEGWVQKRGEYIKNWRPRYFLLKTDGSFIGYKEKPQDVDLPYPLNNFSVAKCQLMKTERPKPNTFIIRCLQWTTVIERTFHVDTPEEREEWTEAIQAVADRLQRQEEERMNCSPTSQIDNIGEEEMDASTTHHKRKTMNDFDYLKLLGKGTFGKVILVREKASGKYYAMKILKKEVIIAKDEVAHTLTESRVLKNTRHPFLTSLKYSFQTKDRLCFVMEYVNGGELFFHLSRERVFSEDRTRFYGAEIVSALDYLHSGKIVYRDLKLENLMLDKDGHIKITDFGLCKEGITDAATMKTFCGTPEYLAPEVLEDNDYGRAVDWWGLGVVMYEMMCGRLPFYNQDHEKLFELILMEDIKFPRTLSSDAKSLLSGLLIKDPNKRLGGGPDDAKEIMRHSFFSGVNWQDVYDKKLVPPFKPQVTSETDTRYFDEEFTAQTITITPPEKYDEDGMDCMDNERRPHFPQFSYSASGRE
T7 sequence (P45983 whole entry): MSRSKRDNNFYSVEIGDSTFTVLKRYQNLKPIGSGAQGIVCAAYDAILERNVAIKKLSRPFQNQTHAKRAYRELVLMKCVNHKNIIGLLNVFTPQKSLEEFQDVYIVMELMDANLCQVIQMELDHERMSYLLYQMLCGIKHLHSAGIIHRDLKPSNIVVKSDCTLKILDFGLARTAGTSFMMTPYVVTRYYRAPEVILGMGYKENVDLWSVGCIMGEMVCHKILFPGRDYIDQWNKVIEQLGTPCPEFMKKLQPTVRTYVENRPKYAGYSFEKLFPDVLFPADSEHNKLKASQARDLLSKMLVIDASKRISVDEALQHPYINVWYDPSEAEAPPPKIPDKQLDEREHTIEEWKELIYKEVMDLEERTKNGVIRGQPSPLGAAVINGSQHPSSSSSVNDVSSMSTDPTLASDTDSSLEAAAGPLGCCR
T3 sequence (P04049 whole entry): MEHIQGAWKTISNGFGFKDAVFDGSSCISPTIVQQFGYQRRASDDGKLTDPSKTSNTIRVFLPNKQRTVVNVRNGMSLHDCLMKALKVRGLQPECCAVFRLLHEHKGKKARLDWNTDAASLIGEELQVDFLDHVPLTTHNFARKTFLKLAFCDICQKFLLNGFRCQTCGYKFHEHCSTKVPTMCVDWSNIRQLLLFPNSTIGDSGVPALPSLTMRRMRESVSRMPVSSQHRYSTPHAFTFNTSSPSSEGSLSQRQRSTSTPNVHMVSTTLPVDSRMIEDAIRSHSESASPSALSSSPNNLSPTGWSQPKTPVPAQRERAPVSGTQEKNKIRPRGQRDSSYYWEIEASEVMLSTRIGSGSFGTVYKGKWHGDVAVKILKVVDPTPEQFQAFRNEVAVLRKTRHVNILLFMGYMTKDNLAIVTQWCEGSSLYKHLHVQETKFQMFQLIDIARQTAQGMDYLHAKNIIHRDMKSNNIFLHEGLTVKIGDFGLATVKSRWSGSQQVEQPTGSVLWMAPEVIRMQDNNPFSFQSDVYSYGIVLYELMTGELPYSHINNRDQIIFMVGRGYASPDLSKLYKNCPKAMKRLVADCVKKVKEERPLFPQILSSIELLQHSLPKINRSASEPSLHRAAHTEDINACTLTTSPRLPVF
T6 sequence (Q05397 411-686): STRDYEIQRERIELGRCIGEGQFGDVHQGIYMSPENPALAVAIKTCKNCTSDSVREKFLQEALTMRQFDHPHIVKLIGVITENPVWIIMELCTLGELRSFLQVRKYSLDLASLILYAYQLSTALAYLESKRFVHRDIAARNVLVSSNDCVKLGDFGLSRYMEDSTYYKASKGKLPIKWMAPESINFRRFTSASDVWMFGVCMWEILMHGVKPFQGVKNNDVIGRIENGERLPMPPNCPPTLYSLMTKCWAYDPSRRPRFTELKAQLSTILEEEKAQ
T4 sequence (Q04759 whole entry): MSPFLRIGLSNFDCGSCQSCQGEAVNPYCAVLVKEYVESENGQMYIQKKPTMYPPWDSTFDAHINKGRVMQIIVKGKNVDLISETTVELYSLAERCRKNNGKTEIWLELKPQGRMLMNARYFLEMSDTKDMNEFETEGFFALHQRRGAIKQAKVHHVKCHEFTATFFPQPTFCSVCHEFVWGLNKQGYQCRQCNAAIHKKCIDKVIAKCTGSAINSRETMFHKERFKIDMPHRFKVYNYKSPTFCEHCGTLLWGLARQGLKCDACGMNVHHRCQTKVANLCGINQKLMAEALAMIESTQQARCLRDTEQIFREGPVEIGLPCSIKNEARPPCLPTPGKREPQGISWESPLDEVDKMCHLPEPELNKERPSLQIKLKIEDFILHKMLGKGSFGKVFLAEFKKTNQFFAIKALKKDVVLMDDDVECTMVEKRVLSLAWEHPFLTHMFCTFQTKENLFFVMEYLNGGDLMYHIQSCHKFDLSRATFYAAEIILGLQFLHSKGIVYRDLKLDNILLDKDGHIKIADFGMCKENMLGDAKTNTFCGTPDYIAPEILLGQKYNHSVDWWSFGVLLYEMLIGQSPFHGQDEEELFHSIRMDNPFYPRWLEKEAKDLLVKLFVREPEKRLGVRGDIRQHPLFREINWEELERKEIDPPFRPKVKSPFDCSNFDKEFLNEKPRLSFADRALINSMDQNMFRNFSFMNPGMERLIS

CC(=O)Nc1cccc(-c2cnc3[nH]cc(C(=O)c4cc(O)ccc4F)c3c2)c1 [Compound P-0001]
≤ 10 µM: all assays above

O=C(c1cccc(O)c1)c1c[nH]c2ncc(Nc3ccccc3)cc12 [Compound P-0025]
not listed: Stk6 | Met
≤ 10 µM: all other assays above

Nc1cccc(-c2cnc3[nH]cc(C(=O)c4cc(O)ccc4F)c3c2)c1 [Compound P-0002]
≤ 10 µM: all assays above

O=C(c1cccc(O)c1)c1c[nH]c2ncccc12 [Compound P-0011]
≤ 10 µM: Abl | Stk6 | PKC theta

CS(=O)(=O)c1cccc(-c2cnc3[nH]cc(C(=O)c4cc(O)ccc4F)c3c2)c1 [Compound P-0008, (2-Fluoro-5-hydroxy-phenyl)-[5-(3-methanesulfonyl-phenyl)-1H-pyrrolo[2,3-b]pyridin-3-yl]-methanone]
not listed: Abl
≤ 10 µM: all other assays above

O=C(c1ccc(O)cc1)c1c[nH]c2ncc(-c3cccs3)cc12 [Compound P-0024, (4-Hydroxy-phenyl)-(5-thiophen-2-yl-1H-pyrrolo[2,3-b]pyridin-3-yl)-methanone]
≤ 10 µM: c-Raf-1 | PKC theta | Fak | Akt3

CS(=O)(=O)c1cccc(-c2cnc3[nH]cc(C(O)c4c(F)ccc(F)c4F)c3c2)c1 (stereo not shown) [Compound P-0020]
≤ 10 µM: Stk6 | PKC theta | Met

O=C(c1ccc(O)cc1Cl)c1c[nH]c2ncccc12 [Compound P-0021]
≤ 10 µM: c-Raf-1 | PKC theta | Akt3 | Jnk1

Nc1cccc(-c2cnc3[nH]cc(C(=O)c4cccc(O)c4)c3c2)c1 [Compound P-0003]
not listed: c-Raf-1 | Met
≤ 10 µM: all other assays above

Cc1c(O)cccc1C(=O)c1c[nH]c2ncc(-c3cccnc3)cc12 [Compound P-0006, (3-Hydroxy-2-methyl-phenyl)-(5-pyridin-3-yl-1H-pyrrolo[2,3b]pyridin-3-yl)-methanone]
not listed: Abl | Stk6
≤ 10 µM: all other assays above

O=C(c1cccc(O)c1)c1c[nH]c2nccc(Cl)c12 [Compound P-0012]
≤ 10 µM: Abl | PKC theta

CS(=O)(=O)Nc1cccc(-c2ccnc3[nH]cc(C(=O)c4cc(F)ccc4F)c23)c1 [Compound P-0060]
≤ 10 µM: Stk6 | PKC theta | Akt3

O=C(c1cccc(O)c1)c1c[nH]c2ncc(Br)cc12 [Compound P-0019]
≤ 10 µM: Abl | PKC theta | Akt3

Cc1c(O)cccc1C(=O)c1c[nH]c2ncc(Br)cc12 [Compound P-0055, (5-Bromo-1H-pyrrolo[2,3-b]pyridin-3-yl)-(3-hydroxy-2-methyl-phenyl)-methanone]
≤ 10 µM: c-Raf-1 | PKC theta | Fak | Akt3

NC(=O)c1ccc(-c2ccnc3[nH]cc(C(=O)c4cc(F)ccc4F)c23)cc1 [Compound P-0013]
≤ 10 µM: Stk6 | PKC theta

Cc1ccccc1C(=O)c1c[nH]c2nccc(-c3cccc(N)c3)c12 [Compound P-0044]
≤ 10 µM: Stk6 | PKC theta

CS(=O)(=O)c1cccc(-c2cnc3[nH]cc(C(=O)c4cccc(O)c4F)c3c2)c1 [Compound P-0026, (2-Fluoro-3-hydroxy-phenyl)-[5-(3-methanesulfonylphenyl)1H-pyrrolo[2,3-b]pyridin-3-yl]-methanone]
not listed: Abl | Stk6
≤ 10 µM: all other assays above

NC(=O)c1cccc(-c2ccnc3[nH]cc(C(=O)c4cc(F)ccc4F)c23)c1 [Compound P-0049]
≤ 10 µM: Stk6 | PKC theta

Nc1cccc(-c2cnc3[nH]cc(C(=O)c4cccc(O)c4F)c3c2)c1 [Compound P-0004, [5-(3-amino-phenyl)-1H-pyrrolo[2,3-b]pyridin-3-yl]-(2-fluoro-3-hydroxy-phenyl)methanone]
not listed: Abl | Stk6
≤ 10 µM: all other assays above
